What all share (assay type): cell-based
The target of assay [1] is T1, hURAT1 (Homo sapiens, UniProt Q96S37).
T1 sequence (Q96S37 1-553): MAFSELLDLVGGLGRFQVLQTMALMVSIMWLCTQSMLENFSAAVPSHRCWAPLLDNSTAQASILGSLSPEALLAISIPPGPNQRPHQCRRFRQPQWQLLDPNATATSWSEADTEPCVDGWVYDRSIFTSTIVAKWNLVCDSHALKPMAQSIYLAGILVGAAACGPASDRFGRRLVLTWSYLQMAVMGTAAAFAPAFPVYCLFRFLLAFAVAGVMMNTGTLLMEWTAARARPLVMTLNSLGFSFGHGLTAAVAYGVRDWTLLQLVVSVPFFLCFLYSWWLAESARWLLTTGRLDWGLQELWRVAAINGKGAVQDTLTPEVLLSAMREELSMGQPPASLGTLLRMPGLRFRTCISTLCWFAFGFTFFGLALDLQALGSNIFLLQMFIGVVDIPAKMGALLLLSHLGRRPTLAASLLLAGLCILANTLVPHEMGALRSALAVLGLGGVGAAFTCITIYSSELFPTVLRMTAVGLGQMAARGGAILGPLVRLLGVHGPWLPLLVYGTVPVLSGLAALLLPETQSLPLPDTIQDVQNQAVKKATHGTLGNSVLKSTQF
In words: Inhibition assay of uric acid transport in HEK293-hURAT1 transfection cell line. The note with it: 500 nM, HEK293-hURAT1 transfection cell line, 14C-uric acid, average of three tests; for inhibition at 0.5 µM: read-out: Inhibitory rates of uric acid transport, ±SD (%). Here is the method: 2.1 Construction of a HEK293 stable cell line with high expression of hURAT1: The plasmid pCMV6-hURAT1 was transfected into HEK293 cells, then the stable strain was obtained by the G418 (final concentration 500 μg/mL) resistance screening, which is the high expression of hURAT1 transporter membrane protein.
2.2 To a coated 24-well plate was added 200 μL of 0.1 mg/mL poly-lysine per well and the plate was left overnight. Poly-lysine was removed from wells. The wells were cleaned thoroughly with aseptic water and dried for use.
2.3 To the above coated 24 well plate was added HEK293-hURAT1 stable cells (2×10^5 cells per well). The cells was cultured at 37° C. under 5% CO2 for 3 days.
The solution was fully mixed to give HBSS buffer (pH value: 7.4). The buffer was stored at −20° C.
2.5 The HBSS buffer was warmed to 37° C. in a water bath. Washed cells with HBSS twice, added 160 μL of HBSS and 20 μL test compound per well. The final concentration of tested compound per well is 500 nM. The blank control well contains only 180 μL of HBSS without tested compound. The plate was placed at room temperature for 30 min.
2.6 To each well was added 20 μL of 50 μM ^14C-Uric acid. The plate was placed at room temperature for 20 min.
2.7 The solution in each well was removed and the cells in each well were washed with pre-cooled HBSS buffer. To each well was added 0.2 M NaOH to dissolve the cells. The solution containing cell fragments was collected and the right amount of scintillation liquid was added.
The formula for calculating the inhibitory rate of uric acid transport for compounds was shown as below: […]

For assay [2], the system named is human normal liver cell line L-02. In words: Cytotoxicity test on human normal liver cell line L-02 (Alamar Blue). The settings on record: L02, L-02 cells, 120 h incubation, cell viability, read-out: half inhibitory concentration (IC50) against L-02. The procedure:
(§1) 2.1 The normal liver cell lines L-02 and WRL-68 were cultured with DMEM culture medium (containing 10% of fetal bovine serum, 100 U/mL of penicillin and 0.1 mg/mL of streptomycin) in an incubator under 5% CO2 at 37° C. until the cell density was about 90%, respectively.
(§2) 2.3 Tested compounds and benzbromarone at different concentration gradients were prepared by using the DMEM culture medium and added into wells at 100 μL/well as compounds wells. The DMEM culture medium was added into wells at 100 μL/well without tested compound as negative control wells.
(§3) This 10× Alamar Blue solution was diluted into 1× Alamar Blue solution with phenol red free DMEM culture medium before use.
(§4) 2.5 The cells were washed with PBS (0.1 M, pH=7.4) twice. The Alamar Blue solution was added into wells at 100 μL/well. 100 μL of Alamar Blue solution was added into wells without cells to serve as blank control wells. The 96-well plate was placed in an incubator under 5% CO2 at 37° C. for 3 h. Each concentration of compound was repeated three times during the test.
(§5) The fluorescence value of the cells containing compound is the F(test compound); the fluorescence value of the cells without compound as blank control is the F(blank control); the fluorescent value of the cells from negative control group is F(negative control). The average value and standard deviation of cell viability of three repeated concentrations was calculated by the following formula: […]
(§6) 2.7 The half inhibitory concentration (IC50) of the compound for the cells L-02 and WRL-68 was obtained from the cell viability by Prism Graph software.
For orientation: Alamar Blue is a resazurin reagent that responds to reducing activity.

In assay [3] the test system is human normal liver cell line WRL-68. In words: Cytotoxicity test on human normal liver cell line WRL-68 (Alamar Blue). The settings on record: WRL68, WRL-68 cells, 120 h incubation, cell viability, read-out: half inhibitory concentration (IC50) against WRL-68. Here is the method:
as §1, §2, §3, §4, §5, §6

Where only a bound is given, the exact number is not on record here.

For `CCc1nc2ccc(OC)cn2c1C(=O)c1cc(Br)c(O)c(Br)c1` [Compound 33, (3,5-dibromo-4-hydroxyphenyl)(2-ethyl-6-methoxyimidazo[1,2-a]pyridine-3-yl)methanone], the inhibition at 0.5 µM in assay [1] was found to be 65.06 ± 0.39%. The IC50 in assay [2] and in assay [3] was above 100 µM throughout.
Regarding `CCc1nc2ccc(O)cn2c1C(=O)c1cc(Br)c(O)c(Br)c1` [Compound 52, (3,5-dibromo-4-hydroxyphenyl)(2-ethyl-6-hydroxyimidazo-[1,2-a]pyridin-3-yl)methanone], the inhibition at 0.5 µM in assay [1] amounted to 57.5 ± 3.61%. In addition, the IC50 in assay [2] and in assay [3] was above 100 µM in each case.
Regarding `CCc1nc2ccccn2c1C(=O)c1cc(Br)c(O)c(I)c1` [Compound 11, (3-bromo-4-hydroxy-5-iodophenyl)(2-ethylimidazo[1,2-a]-pyridine-3-yl)methanone], the inhibition at 0.5 µM in assay [1] stood at 63.5 ± 0.95%.
On to `CCc1nc2ccccn2c1C(=O)c1cc(I)c(O)c(I)c1` [Compound 5, (2-ethylimidazo[1,2-a]pyridine-3-yl)(4-hydroxy-3,5-diiodophenyl)methanone], for which the inhibition at 0.5 µM in assay [1] is 63 ± 3.33%. In addition, the IC50 in assay [2] and in assay [3] was above 100 µM each time.
For `CCc1nc2cc(C)c(Br)cn2c1C(=O)c1cc(Br)c(O)c(Br)c1` [Compound 56, (6-bromo-2-ethyl-7-methylimidazo[1,2-a]pyridin-3-yl)-(3,5-dibromo-4-hydroxyphenyl)methanone], in assay [1], the inhibition at 0.5 µM came to 62.8 ± 9.34%. Further, the IC50 in assay [2] and in assay [3] was above 100 µM each time.
Take `CCc1nc2ccc(F)cn2c1C(=O)c1cc(Cl)c(O)c(I)c1` [Compound 19, (3-chloro-4-hydroxy-5-iodophenyl)(2-ethyl-6-fluoroimidazo[1,2-a]pyridine-3-yl)methanone]: the inhibition at 0.5 µM in assay [1] is 68.8 ± 2.83%.
Still for that read-out and setting: then `CCc1nc2ccccn2c1C(=O)c1cc(Br)c(O)c(C(F)(F)F)c1` [Compound 29, (3-bromo-4-hydroxy-5-(trifluoromethyl)phenyl)-(2-ethylimidazo[1,2-a]pyridine-3-yl)methanone], with 64.35 ± 0.12%.
Turning to `CCc1nc2ccccn2c1C(=O)c1cc(Br)c(O)c(Br)c1` [Compound 4, (3,5-dibromo-4-hydroxyphenyl)(2-ethylimidazo[1,2-a]-pyridin-3-yl)methanone], the inhibition at 0.5 µM in assay [1] was 71.7 ± 1.84%. The IC50 in assay [2] and in assay [3] was above 100 µM in each case.
On to `CCc1nc2ccc(F)cn2c1C(=O)c1cc(Cl)c(O)c(Br)c1` [Compound 18, (3-bromo-5-chloro-4-hydroxyphenyl)(2-ethyl-6-fluoroimidazo[1,2-a]pyridine-3-yl)methanone], for which the inhibition at 0.5 µM in assay [1] was found to be 65.4 ± 0.71%. Moreover, the IC50 in assay [2] and in assay [3] was above 100 µM each time.
On to `CCc1nc2ccccn2c1C(=O)c1cc(I)c(O)c(C#N)c1` [Compound 75, 5-(2-ethylimidazo[1,2-a]pyridine-3-carbonyl)-2-hydroxy-3-iodobenzonitrile hydrogen chloride], for which the “Inhibitory rates of uric acid transport, ±SD (%)” value in assay [1] (0.5 µM) is given as 62.58 ± 0.84%. Besides, the IC50 in assay [2] and in assay [3] was above 100 µM each time.
Regarding `CCc1nc2ccccn2c1C(=O)c1cc(Cl)c(O)c(I)c1` [Compound 9, (3-chloro-4-hydroxy-5-iodophenyl)(2-ethylimidazo[1,2-a]-pyridin-3-yl)methanone], in assay [1], the inhibition at 0.5 µM was determined as 60.6 ± 0.82%. For the same compound, the IC50 in assay [2] and in assay [3] was above 100 µM each time.
Turning to `CCc1nc2ccccn2c1C(=O)c1cc(Br)c(O)c(C#N)c1` [Compound 38, 3-bromo-5-(2-ethylimidazo[1,2-a]pyridine-3-carbonyl)-2-hydroxybenzonitrile], the inhibition at 0.5 µM in assay [1] stood at 62.4 ± 0.72%.
For `CCc1nc2ccc(F)cn2c1C(=O)c1cc(F)c(O)c(I)c1` [Compound 51, (2-ethyl-6-fluoroimidazo[1,2-a]pyridin-3-yl)(3-fluoro-4-hydroxy-5-iodophenyl)methanone], in assay [1], the inhibition at 0.5 µM turned out to be 61.3 ± 1.1%. The IC50 in assay [2] and in assay [3] was above 100 µM in each case.
For `[2H]c1ccc2nc(CC)c(C(=O)c3cc(Br)c(O)c(Br)c3)n2c1` [Compound 69, (6-deuterium-2-ethylimidazo[1,2-a]pyridine-3-yl)(3,5-dibromo-4-hydroxyphenyl)methanone], the “Inhibitory rates of uric acid transport, ±SD (%)” value in assay [1] was determined as 71.10 ± 2.50%.
Take `CCc1nc2ccccn2c1C(=O)c1cc(Cl)c(O)c(Br)c1` [Compound 45, (3-bromo-5-chloro-4-hydroxyphenyl)(2-ethylimidazo[1,2-a]-pyridin-3-yl)methanone]: the inhibition at 0.5 µM in assay [1] came to 62.9 ± 3.34%. Further, the IC50 in assay [2] and in assay [3] was above 100 µM each time.
Consider `CCc1nc2ccccn2c1C(=O)c1cc(C)c(O)c(I)c1` [Compound 12, (2-ethylimidazo[1,2-a]pyridine-3-yl)(4-hydroxy-3-iodo-5-methylphenyl)methanone], for which the inhibition at 0.5 µM in assay [1] was determined as 56.24 ± 0.12%.
With `CCc1nc2ccc(C)cn2c1C(=O)c1cc(Br)c(O)c(Br)c1` [Compound 30, (3,5-dibromo-4-hydroxyphenyl)(2-ethyl-6-methylimidazo[1,2-a]pyridine-3-yl)methanone], the inhibition at 0.5 µM in assay [1] amounted to 68 ± 1.49%.
Still for that read-out and setting: then `CCCc1nc2ccccn2c1C(=O)c1cc(Br)c(O)c(Br)c1` [Compound 41, (3,5-dibromo-4-hydroxyphenyl)(2-propylimidazo[1,2-a]-pyridine-3-yl)methanone], with 55.5 ± 1.02%.
With `CCc1nc2ccccn2c1C(=O)c1cc(I)c(O)c(C#N)c1` [Compound 39, 5-(2-ethylimidazo[1,2-a]pyridine-3-carbonyl)-2-hydroxy-3-iodobenzonitrile], in assay [1], the inhibition at 0.5 µM was 64.1 ± 2.25%.
